The source of these data is PMC8221158, “Novel pyrrolizines bearing 3,4,5-trimethoxyphenyl moiety: design, synthesis, molecular docking, and biological evaluation as potential multi-target cytotoxic agents” (Journal of Enzyme Inhibition and Medicinal Chemistry, 2021).

What is called IC50 is the concentration that inhibits the measured activity by half.

Structures are written as SMILES.

One data set has as its system HDAC1. Conditions: cited from earlier work.
The test system of another data set is HDAC2. Conditions: cited from earlier work.
In a further data set the test system is HDAC3. Conditions: cited from earlier work.
The test system of data set [1] is a panel of cancer cell lines. Conditions: read-out: cytotoxic activity IC50; cited from earlier work.
Data set [2] concerns MCF-7, HCT116, and A2780 cancer cell lines. Kind of data set: MTT assay, three cancer cell lines taken together (average, overall range). The class given is cell-based, human. Conditions: Homo sapiens; MCF-7, HCT116, A2780; read-out: Average of the three IC50 values against the three cancer cell lines. (Tetrazolium dyes change colour on reduction, which living cells bring about.)
Experimental: Cells from flasks of 70–80% confluency were separately seeded in 96-well flat-bottom microculture plates (Nalgene-Nunc, Thermo Fisher Scientific, Roskilde, Denmark) at a density of 3 × 10^3 cells (MCF-7, A2780, and MRC-5), 1 × 10^4 cells (HCT116), to a volume of 180 μL/well of culture medium. […] The final concentrations of each compound in wells were: 0–50 μM in 200 μL of media (DMSO 0.1%). Lapatinib (Cayman, Ann Arbor, MI) was used as a positive control at the same final concentrations. Medium only (20 μL) was added to each control well, and each concentration was tested in triplicates (n = 3). Following incubation for 72 h, 50 μL MTT was added into each well. Plates were incubated for 3 h, the supernatant was aspirated, and 100 μL of DMSO was added to each well. The optical density (OD) of the purple formazan is proportional to the number of viable cells. […] The absorbance of the reduced MTT was determined using a microplate reader A570 nm.
The MTT assay depends on the reduction of the yellow tetrazole dye (MTT) to the purple formazan by the active mitochondrial dehydrogenase enzymes indicating the viability of the cells which can be measured as OD.

The next data set concerns MCF-7. Conditions: MTT, 72 h; read-out: IC50 (µM ± SD) MCF-7; cited from earlier work.
The test system of a further data set is A2780. Conditions: MTT, 72 h; read-out: IC50 (µM ± SD) A2780; cited from earlier work.
A further data set has as its system normal MRC-5 cells. Further details: method as in PMID 31655429. Conditions: 72 h; read-out: IC50 (µM ± SD) MRC-5; cited from earlier work.
The subject of a further data set is MCF-7 cells. Further details: method as in PMID 31655429. Conditions: 1 µM, 24 h; control 17.3%; cited from earlier work.
In a further data set the test system is 20 kinases. Further details: method as in PMID 31655429. Conditions: ALK1, CDK-2/cyclin A1, DYRK3, GSK3 alpha, NEK1; cited from earlier work.
A further data set concerns the target T1, CDK-2 (Homo sapiens, UniProt P24941).
T1 construct: purchased Promega, Madison, WI
The arrangement: method as in PMID 17064068. Conditions: read-out: IC50 against CDK-2; cited from earlier work.

Another data set relates to VEGFR-2. The arrangement: method as in PMID 24890652. Conditions: cited from earlier work.
For a further data set, the system named is tubulin assembly. The arrangement: method as in PMID 24890652. Conditions: cited from earlier work.

For the molecule `COc1cc2c(c(OC)c1OC)-c1ccc(OC)c(=O)cc1[C@@H](NCc1ccc(C(=O)Nc3ccccc3N)cc1)CC2` [compound 8], the IC50 in the data set with HDAC1 is 12500 nM; with HDAC2, 6730 nM; with HDAC3 it was 11200 nM; in [1], 2 to 105 nM.
Take `CC(C)C/C=N/c1c(C#N)c2n(c1C(=O)Nc1ccc(Br)cc1)CCC2` [9a]: the IC50 was 310 nM in [2], 0.1 ± 0.05 µM with MCF-7, 0.52 ± 0.02 µM with A2780 and 25.8 ± 0.73 µM in the data set with normal MRC-5 cells. The “Cell cycle S phase %” value with MCF-7 cells is on record as 55.6%. Also, the “inhibition% over the inhibited kinases of the panel” value in the data set on 20 kinases was 3–25%.
On to `Nc1n[nH]c(N)c1/N=N/c1ccc(O)cc1` [CAN508, 4-[(E)-(3,5-diamino-1H-pyrazol-4-yl)diazenyl)phenol], for which the IC50 at CDK-2 is 3500 nM.
`COc1ccc(N(C)c2nc(C)nc3oc(C)cc23)cc1` [compound 7]: the IC50 with VEGFR-2 was […]; in the data set on tubulin assembly, 1.9 nM.
